# Measurements published in patent US8586638B2, “Parakeratosis inhibitor and skin preparation for external use” (priority 2003, dated 2013).
# Values joined by “and” are separate entries in the source; they are usually repeats but may differ in a detail not shown here. Equal entries are not always repeated. Where a SMILES comes first, the peptide text is derived from it.
# Key:
# [1] = system: pores (conical portion) on the cheek of healthy adult males; assay: Effect of shrinking human pores by glycylglycine: conical portion surface area from cheek replica; format: in vivo
# Description: Since we obtained a good result from glycylglycine in the embodiment 2, we conducted an application experiment of glycylglycine three times a day (0.1 milliliter each) on the cheek of 21 healthy adult males (age of 20s to 50s, average 40.4 years old) for a period of one month. 1.6% (w/w) glycylglycine solution (pH regulated to 7.0) including 15% (w/w) ethanol, and 15% (w/w) ethanol solution (control) was prepared, for applying the same to each one side cheek.
# By obtaining a cheek replica (Silflo) before and after the continuous application, the surface area of conical portion was measured by a three-dimensional analysis system (Okuri et al., Japan Society of Dermatology Annual Meeting Program/Abstract, 2004, 104, pp. 601) by means of wide view confocal microscope HD100D (lasertech).
# For the surface area recognized as pore portion within the replica measuring area of 3.34 mm by 3.34 mm, the conical portion surface area (mm2) and the ratio thereof before and after the application is shown in Table 3. From Table 3, The ratio among the panel that the surface area of glycylglycine applied side was decreased more than 10% when compared to the control application side (glycylglycine side was shrunk), the panel that the variation was within 10% and no noticeable change observed (no change), and the panel that the control application side was decreased more than 10% (other side was shrunk) was 13:5:3.
# When averaging the surface area ratio before and after the application, the side of control solvent solution was 102%, while the side of glycylglycine was reduced to 89%. By evaluating this surface area ratio with t-analysis, we obtained p=0.019, indicating significant shrinkage of pore area in the glycylglycine applied side (see FIG. 1).
# [2] = system: pores on the cheek of healthy male subjects; assay: Effect of shrinking human pores: replica evaluation of cheek pores; format: in vivo; conditions: for Replica Evaluation (mean of n = 5), difference of pore size score before/after application: twice a day for a month, cheek
# Description: An experiment of application of sample twice a day for a month on the cheek of healthy male subjects, was conducted with each group consisting of 5 individuals. 3 weight % solution of the glycine derivatives in accordance with the invention 1 (including 15 weight % of ethanol) was prepared. pH was regulated to the range between 7.0 and 7.5, by using hydrochloric acid and/or sodium hydroxide. Control was 15 weight % ethanol solution. Said 3 weight % solution was applied to one side and said control solution was applied to the other side.
# Replicas were prepared prior to and after the application to observe the change of form of pores in the same spot under a three-dimensional laser scanning microscope. The size of pores was evaluated visually 13 steps from 1 to 13 (larger number indicates larger pore size), and the difference between the resulted evaluations before/after the application experiment was then calculated to study the effectiveness of each specimen.
# An experiment of application of sample twice a day for a month on the cheek of healthy male subjects, was conducted with each group consisting of 5 individuals. 3 weight % solution of the glycine derivatives and the salts thereof as well as the aminosulfuric acid derivatives and the salts thereof in accordance with the invention 2 (including 15 weight % of ethanol), 2 weight % solution of ACES (including 15 weight % of ethanol), 3 weight % solution of CAPS (including 15 weight % of ethanol), and 3 weight % solution of CAPSO (including 15 weight % of ethanol) were prepared. pH was regulated to the range between 7.0 and 7.5, by using hydrochloric acid and/or sodium hydroxide. 15 weight % ethanol solution was used as control. Said sample solutions was applied to one side, and said control solution was applied to the other side.
# [3] = system: parakeratosis and skin roughness caused by oleic acid on the back of hairless mice; assay: Parakeratosis inhibition effect test: oleic acid applied to the back of hairless mice, visual skin roughness and parakeratosis level; format: in vivo, hairless mice (HR-1); design: key to Evaluation Visual (mean of 4 mice), skin roughness: 0.0 = no roughness, 2.0 = control application; 0.25 steps; conditions: for Evaluation Parakeratosis (mean of 4 mice): range 1.0 to 3.0, higher = severer, control 2.0; for Evaluation Visual (mean of 4 mice), skin roughness: score 0.0 no roughness, 2.0 control
# Summary of the method: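 Hairless mice (HR-1) received 100 microliters of 10 weight % oleic acid in ethanol on the back, followed by 100 microliters of test solution (aqueous, with 30 weight % ethanol, pH 7.0 to 7.5), repeated for 3 days. The next day, CCD-camera images were scored visually for roughness (control 2.0, none 0.0), and tape-stripped haematoxylin-stained stratum corneum was graded for parakeratosis from 1.0 to 3.0 in 0.25 steps.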
# [4] = system: pores (conical portion) on the cheek of healthy adult males; assay: Effect of shrinking human pores by glycylglycine: conical portion surface area from cheek replica; format: in vivo; conditions: glycylglycine applied side compared with ethanol applied side
# [5] = system: pores on the cheek of healthy male subjects; assay: Pore-shrinking effect on human skin by N-ethylglycine: pore surface area by replica analysis; format: in vivo; conditions: 3 weight % N-ethylglycine side; control 92%; area 3.34 mm by 3.34 mm; FIG. 3
# From the text: (§1) In the pore-shrinking effect test on human skin as described in the embodiment 5, the application of N-ethylglycine was further studied about the amelioration of parakeratosis by measuring the number of nuclear cell of skin surface stratum corneum, obtained by means of a tape. Replica was used to actually measure the pore size within the area of 3.34 mm by 3.34 mm to evaluate the pore-shrinking effect.
# (§2) More specifically, the skin surface stratum corneum was sampled by means of carton tape (Nichiban, Co. Ltd.) only after the application of sample, Hoechst 33342 solution dissolved in PBS to 0.1 mg/ml was then added, and after the sample was placed in a dark place for 20 minutes, the number of nuclear cells within the area of 12 mm by 34 mm by using a fluorescent microscope. For the replicas made by using silflo (Flexico, Co. Ltd.) was measured before and after the application to capture three-dimensional surface form within the same area (3.34 mm by 3.34 mm) with a confocal microscope (HD100D, Lasertech) to measure and compare the size of pores (surface area value).
# [6] = system: skin roughness caused by oleic acid on the back of hairless mice; assay: Inhibitory effect on skin roughness by the application of oleic acid (TEWL value); format: in vivo, hairless mice (HR-1); design: ΔTEWL: unit not given here
# Summary of the method: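 HR-1 hairless mice (four per group) received 100 μl 10 weight % oleic acid in ethanol on the back, then 100 μl test solution, repeated for 3 days. TEWL measured the day after application and averaged; delta-TEWL versus control solution reflects skin roughness, larger meaning worse.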
# [7] = system: skin surface stratum corneum of human cheek; assay: Parakeratosis inhibition effect on human skin by N-ethylglycine: number of nuclear cells of skin surface stratum corneum; format: in vivo; conditions: 3 weight % N-ethylglycine side against control side (15 weight % ethanol); area 12 mm by 34 mm; FIG. 2
# From the text: as §1, §2
# [8] = sample 3 weight % in aqueous 30 weight % ethanol, after 10 weight % oleic acid, 3 days
# [9] = Table 4, sample 3 weight % in aqueous 30 weight % ethanol (hydantoic acid: 20 weight % ethanol)
smiles,measurement,setting,value
NCC(=O)NCC(=O)O [glycylglycine] (H-Gly-Gly-OH),average surface area ratio before and after the application,"[1]; glycylglycine side, control solvent side 102%, p=0.019",89%
same,conical portion surface area after application,"[1]; individual panels #1-21, 1.6% (w/w) glycylglycine, 15% ethanol, three times a day, one month, area 3.34 mm by 3.34 mm",1.2057 mm^2 and 1.3727 mm^2 and 1.5166 mm^2 and 1.4427 mm^2 and 1.2368 mm^2 and 0.6078 mm^2 and 0.3675 mm^2 and 0.4880 mm^2 and 1.1250 mm^2 and 0.5977 mm^2 and 1.3739 mm^2 and 0.2691 mm^2 and 1.2348 mm^2 and 1.2053 mm^2 and 1.0498 mm^2 and 0.3669 mm^2 and 0.6778 mm^2 and 1.0541 mm^2 and 0.5801 mm^2 and 0.6728 mm^2 and 1.3879 mm^2
same,conical portion surface area ratio after/before,"[1]; individual panels #1-21, 1.6% (w/w) glycylglycine, three times a day, one month",0.8948 and 0.9818 and 1.0512 and 1.0627 and 1.0535 and 0.7494 and 0.5279 and 0.7405 and 0.7878 and 0.6357 and 0.8594 and 0.4111 and 1.3932 and 0.8940 and 1.2831 and 0.5594 and 0.7676 and 0.8700 and 1.2931 and 0.7612 and 1.0131
same,"conical portion surface area ratio after/before, mean","[1]; mean of 21 panels (S.D. 0.2597), 1.6% (w/w) glycylglycine, control mean 1.017",0.8853
same,"Replica Evaluation (mean of n = 5), difference of pore size score before/after application","[2]; 3 weight % solution (15 weight % ethanol), 13 steps, larger = larger pore, control 0.2",−1.0
same,pore-shrinking effect (conclusion from Table 2),"[2]; human cheek, second embodiment",pore-shrinking effect was observed
same,effect of inhibiting parakeratosis (conclusion from Table 1),"[3]; hairless mice, oleic acid, first embodiment",have the effect of inhibiting parakeratosis
same,Evaluation Parakeratosis (mean of 4 mice),[3]; [8],1.2
same,"Evaluation Visual (mean of 4 mice), skin roughness",[3]; [8],1.2
same,photographic evaluation of conspicuous pores,[4],ameliorated
CCNCC(=O)O [N-ethylglycine],"Replica Evaluation (mean of n = 5), difference of pore size score before/after application","[2]; Table 5, 3.0 weight % solution (15 weight % ethanol), control 0.3",−1.4
same,effect of pore-shrinking (conclusion from Table 5),"[2]; human cheek, fifth embodiment",demonstrated the effect of pore-shrinking
same,"surface area of pores, average as compared to pre-application status",[5],73%
same,Evaluation Parakeratosis (mean of 4 mice),[3]; [9],1.2
same,"Evaluation Visual (mean of 4 mice), skin roughness",[3]; [9],1.3
same,effect of inhibiting parakeratosis (conclusion from Table 4),"[3]; hairless mice, oleic acid, fourth embodiment",have the effect of inhibiting parakeratosis
same,decrease of delta-TEWL value as compared to the control solution (conclusion from Table 6),"[6]; hairless mice, oleic acid, seventh embodiment",significant decrease of delta-TEWL value
same,ΔTEWL,"[6]; sample 3 weight %, after 10 weight % oleic acid, 3 days, four mice per group, larger = severer roughness, control 12.0",9.0
same,number of nuclear cells of skin surface stratum corneum,[7],fewer number of nuclear cells
